# Data taken from US20100215620A1, “THE CO-CULTURE METHOD OF SPHINGOMONAS SP. BACTERIAL STRAIN AND ASPERGILLUS SP. FUNGUS STRAIN, NEW ANTI-CANCER AND ANTIBIOTIC GLIONITRINS DERIVED FROM THIS CO-CULTURE METHOD, AND PHARMACEUTICAL COMPOSITION CONTAINING GLIONITRINS OR PHARMACEUTICALLY ACCEPTABLE SALT THEREOF AS AN ACTIVE INGREDIENT” (KOREA INSTITUTE OF SCIENCE AND TECHNOLOGY, priority 2007, published 2010).
# Like-named read-outs stand apart in the source and are kept apart here.
# Experiments:
# [1] = test system: Staphylococcu aureus ATCC 4330(MRSA); experiment: Antibacterial MIC, broth dilution, OD600; format: cell-based; details: Staphylococcus aureus, 24 h
# Procedure: (§1) The present inventors also investigated antibacterial effect of glionitrin A and glionitrin B using Micrococcus leuteus IFC 12708, Bacillus subtilis ATCC 6633, Proteus vulgaris ATCC 3851, Salmonella typhimurium ATCC 1 4028 and 3 MRSA strains, Staphylococcus aureus ATCC 43300, S. aureus ATCC 700787 and S. aureus ATCC 700788 distributed from American Type Culture Collection (ATCC, Manassas, Va., USA). […] Then, the medium was eliminated and 100 μl of medium containing 10^5 cfu/mL of each strain was loaded in each well of a 96-well plate. Glionitrin diluted at different concentrations was added thereto, followed by culture at 37° C. for 24 hours. 24 hours later, OD600 was measured.
# [2] = test system: Salmonella typhimurium ATCC 14028[G(−)]; experiment: Antibacterial MIC, broth dilution, OD600; format: cell-based; details: Salmonella enterica
# Procedure: as §1
# [3] = test system: Bacillus subtilis ATCC 6633 [G(+)]; experiment: Antibacterial MIC, broth dilution, OD600; format: cell-based
# Procedure: as §1
# [4] = test system: S. aureus ATCC 700788(MRSA); experiment: Antibacterial MIC, broth dilution, OD600; format: cell-based; details: Staphylococcus aureus
# Procedure: as §1
# [5] = test system: Proteus vulgaris ATCC 3851[G(−)]; experiment: Antibacterial MIC, broth dilution, OD600; format: cell-based
# Procedure: as §1
# [6] = test system: S. aureus ATCC 700787(MRSA); experiment: Antibacterial MIC, broth dilution, OD600; format: cell-based; details: Staphylococcus aureus, 24 h
# Procedure: as §1
# [7] = test system: Micrococus leuteus IFC 12708[G(+)]; experiment: Antibacterial MIC, broth dilution, OD600; format: cell-based, Micrococcus leuteus; details: Micrococcus
# Procedure: as §1
# [8] = test system: 7 bacterial strains; experiment: Antibacterial activity, text summary for the 7 bacterial strains; format: cell-based; details: every experimental group (7 bacterial strains)
# Procedure: as §1
# [9] = test system: HepG2 (liver cancer, HB-8065); experiment: In vitro MTT cytotoxicity assay; format: cell-based; details: Homo sapiens, HepG2, 24 h
# Procedure: (§2) The present inventors investigated cytotoxic effect of glionitrin on cancer cells with in vitro MTT (3-[4,5-dimethylthiazol-2-yl]-2,5-diphenyltrazdium bromide) assay to quantify live cancer cells. Cancer cell cytotoxicity of glionitrin was evaluated using AGS (stomach cancer, ATCC CRL-1739™), HepG2 (liver cancer, HB-8065™), HCT116 (colon cancer, CCL-247™), A549 (lung cancer, CCL-185™) and DU145 (prostatic cancer, HTB-81™) distributed from American Type Culture Collection (ATCC, Manassas, Va., USA). Stomach cancer (AGS), liver cancer (HepG2), colon cancer (HCT-116), lung cancer (A549) or prostatic cancer (DU-145) cells were distributed in a 96-well plate at the density of 1×10^4 cells/100 μl/well, followed by culture in a 37° C., CO2 incubator for 24 hours. Then, the medium was replaced with a fresh one containing glionitrin, followed by culture at 37° C. 24 hours later, MTT solution was added thereto by 10 μl/well, followed by further culture for 1 hour at 37° C. One hour later, formazane generated by reductase in live cells was quantified by measuring OD450.
# [10] = test system: HCT-116 (colon cancer, CCL-247); experiment: In vitro MTT cytotoxicity assay; format: cell-based; details: Homo sapiens, HCT-116, 24 h
# Procedure: as §2
# [11] = test system: DU-145 (prostatic cancer, HTB-81); experiment: In vitro MTT cytotoxicity assay; format: cell-based; details: Homo sapiens, DU-145, 24 h
# Procedure: as §2
# [12] = test system: A549 (lung cancer, CCL-185); experiment: In vitro MTT cytotoxicity assay; format: cell-based; details: Homo sapiens, A549, 24 h
# Procedure: as §2
# [13] = test system: AGS (stomach cancer, ATCC CRL-1739); experiment: In vitro MTT cytotoxicity assay; format: cell-based; details: 24 h
# Procedure: as §2
# [14] = test system: Aspergillus fumigatus HIC 6094 and Trichophyton rubrum IFO 9185; experiment: Antifungal MIC; format: cell-based
# From the text: (§3) The present inventors also evaluated antifungal activity of glionitrins A and B against those strains distributed from American Type Culture Collection (ATCC, Manassas, Va., USA) such as Aspergillus fumigatus HIC 6094 and Trichophyton rubrum IFO 9185. […] To determine MIC of glionitrin for those two fungus strains, spores of the fungus strains were suspended in sterilized distilled water at the density of 10^5 spores/mL and the density was adjusted by using Sabouraud glucose liquid medium (Difco) to 10^3 cells/mL. Then, the cells were distributed in a 96-well plate at the density of 10^2 cells/100 μl/well, to which glionitrin was added at different concentrations, followed by culture at 28° C. for […]. The concentration of glionitrin at which no fungi growth was confirmed was determined as MIC.
# [15] = test system: MCF-7; experiment: In vitro MTT cytotoxicity assay; format: cell-based; details: Homo sapiens, MCF7
# [16] = test system: Trichophyton rubrum IFO 9185; experiment: Antifungal MIC, Sabouraud glucose liquid medium; format: cell-based
# From the text: as §3
# [17] = test system: Aspergillus fumigatus HIC 6094; experiment: Antifungal MIC, Sabouraud glucose liquid medium; format: cell-based
# From the text: as §3
# [18] = Stability of glionitrin A in solution at room temperature; format: physicochemical; details: water, acetonitrile aqueous solution, methanol aqueous solution or DMSO
# From the text: The chemical structures of the separated compounds were identified by using MS and nuclear spectrometer. As a result, it was confirmed that glionitrin A was amorphous light yellow powder represented by the molecular formula of C13H11N3O5S2 which had the molecular weight of 353, and glionitrin B was colorless mucous semi-solid material represented by the molecular formula of C15H17N3O5S2 which had the molecular weight of 383.
# The present inventors performed instrumental analysis with glionitrins to determine the chemical formulas of glionitrin A and glionitrin B. The separated glionitrin A was left in water or DMAO at room temperature. […] Glionitrin A was measured in chloroform-d solvent and glionitrin B was measured in methanol-d4 solvent.
# [19] = test system: 4 non-resistant strains; experiment: Antibacterial MIC; format: cell-based
# Procedure: as §1
# [20] = test system: 3 MRSA strains; experiment: Antibacterial MIC; format: cell-based, Staphylococcus aureus; details: against 3 MRSA strains
# Procedure: as §1
# [21] = Salmonella typhimurium ATCC 14028, 37° C., 24 hours, read-out: MIC
# [22] = ATCC6633, Bacillus subtilis ATCC 6633, 37° C., 24 hours, read-out: MIC
# [23] = ATCC3851, Proteus vulgaris ATCC 3851, 37° C., 24 hours, read-out: MIC
# [24] = Micrococus leuteus IFC 12708, 37° C., 24 hours, read-out: MIC
compound,measurement,setting,value
"CC1(C)S[C@@H]2[C@H](NC(=O)[C@H](N)c3ccccc3)C(=O)N2[C@H]1C(=O)O [ampicillin, reference compound]",MIC,[1],12.5 µg/mL
same,MIC,[2]; [21],12.5 µg/mL
same,MIC,[3]; [22],3.13 µg/mL
same,MIC,"[4]; S. aureus ATCC 700788 (MRSA), 37° C., 24 hours, read-out: MIC",25 µg/mL
same,MIC,[5]; [23],1.56 µg/mL
same,MIC,[6],12.5 µg/mL
same,MIC,[7]; [24],0.78 µg/mL
CSC1(CO)C(=O)N2c3cc([N+](=O)[O-])ccc3CC2(SC)C(=O)N1C (stereo not shown) [glionitrin B],MIC,[1],> 50 µg/mL
same,MIC,[2]; [21],> 50 µg/mL
same,MIC,[3]; [22],> 100 µg/mL
same,MIC,[4]; 24 h,> 50 µg/mL
same,MIC,[5]; [23],> 50 µg/mL
same,MIC,[6],> 50 µg/mL
same,antibacterial activity,[8],no antibacterial activity at all
same,IC50,"[9]; MTT, read-out: IC50",> 2000 nM
same,IC50,"[10]; MTT, read-out: IC50",3280 ± 550 nM
same,IC50,"[11]; MTT, read-out: IC50",2290 ± 140 nM
same,IC50,"[12]; MTT, read-out: IC50",2250 ± 250 nM
same,IC50,"[13]; AGS, MTT, read-out: IC50",1250 ± 200 nM
same,antifungal activity,[14]; Aspergillus fumigatus HIC 6094 and Trichophyton rubrum IFO 9185,did not show antifungal activity
same,IC50,"[15]; MCF-7, MTT, read-out: IC50",> 2000 nM
same,MIC,[7]; [24],> 100 µg/mL
same,MIC,"[16]; IFO9185, Trichophyton rubrum IFO 9185, 28° C., read-out: MIC",> 50 µg/mL
same,MIC,"[17]; HIC6094, Aspergillus fumigatus HIC 6094, 28° C., read-out: MIC",> 50 µg/mL
CN1C(=O)C23Cc4ccc([N+](=O)[O-])cc4N2C(=O)C1(CO)SS3 (stereo not shown) [glionitrin A],MIC,[1],0.78 µg/mL
same,MIC,[2]; 24 h,3.13 µg/mL
same,MIC,"[3]; Bacillus subtilis, ATCC6633, 24 h",6.25 µg/mL
same,MIC,[4]; 24 h,0.78 µg/mL
same,MIC,"[5]; Proteus vulgaris, ATCC3851, 24 h",3.13 µg/mL
same,MIC,[6],0.78 µg/mL
same,IC50,[9],2280 ± 300 nM
same,IC50,[10],820 ± 110 nM
same,IC50,[11],240 ± 20 nM
same,IC50,[12],550 ± 70 nM
same,IC50,[13],450 ± 110 nM
same,stability in solution,[18],trisulfide (glionitrin C) and tetrasulfide (glionitrin D) were generated
same,MIC,[19],0.78 to 3.13 µg/mL
same,MIC,[14]; read-out: MIC (antifungal activity),12.5 µg/mL
same,IC50,[15],> 2000 nM
same,MIC,[7]; 24 h,0.78 µg/mL
same,MIC,[20]; Staphylococcus aureus,0.78 µg/mL
same,antibacterial activity relative to ampicillin,[20]; versus positive control ampicillin,15 times
same,MIC,"[16]; Trichophyton rubrum, IFO9185",12.5 µg/mL
same,MIC,"[17]; Aspergillus fumigatus, HIC6094",12.5 µg/mL
"C[C@@H]1[C@H](O)[C@@H](C)/C=C/C=C/C=C/C=C/C=C/C=C/C=C/[C@H](O[C@@H]2O[C@H](C)[C@@H](O)[C@H](N)[C@@H]2O)C[C@@H]2O[C@](O)(C[C@@H](O)C[C@@H](O)[C@H](O)CC[C@@H](O)C[C@@H](O)CC(=O)O[C@H]1C)C[C@H](O)[C@H]2C(=O)O [amphotericin B, reference compound]",MIC,"[16]; Trichophyton rubrum IFO 9185, 28° C.",1.56 µg/mL
same,MIC,"[17]; Aspergillus fumigatus HIC 6094, 28° C.",1.56 µg/mL
